{"source": "patent EP0071087A1", "about": "“Improved determination of creatine phosphokinase in body fluids” (SERAGEN DIAGNOSTICS, INC., priority 1981, dated 1983)", "molecular_target": "T1, Purified Human Erythrocyte Adenylate Kinase (Homo sapiens, UniProt P00568)", "T1 construct": "from tissue; host or cells: human erythrocytes", "T1 sequence (P00568 1-194)": "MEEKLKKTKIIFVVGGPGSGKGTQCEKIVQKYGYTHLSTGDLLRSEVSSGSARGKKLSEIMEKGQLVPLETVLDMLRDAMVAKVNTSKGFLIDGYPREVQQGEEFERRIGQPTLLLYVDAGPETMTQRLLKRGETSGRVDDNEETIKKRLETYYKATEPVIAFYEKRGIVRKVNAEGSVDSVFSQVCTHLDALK", "assay": "Inhibition of purified human erythrocyte adenylate kinase in a CPK-UV (Oliver-Rosalki) assay", "format": "biochemical", "conditions": "37°C", "procedure": "Table I illustrates the utilization of a high AMP/ ADP ratio in inhibiting purified human erythrocyte adenylate kinase. Residual AK activity is measured in reagent systems containing all necessary components of the Oliver-Rosalki CPK assay. The systems vary as a function of three components: AMP, ADP, and sodium fluoride. The data points cover a 1.43-5.72m Mole/liter ADP range and a 2.9-29.2m Mole/liter AMP range plus or minus 6m Mole/ liter NaF.\nThe reagents of Example 1 and 2 were utilized with the AMP and ADP concentration listed in the table, with or without 6 m mole/liter sodium fluoride."}
{"molecule": "Nc1ncnc2c1ncn2[C@@H]1O[C@H](COP(=O)(O)O)[C@@H](O)[C@H]1O", "note": "[AMP, adenosine monophosphate]", "values": [{"measurement": "Measured Residual Adenylate Kinase (+NaF)", "setting": "ADP 1.43 mM, AMP 2.9 mM, AMP/ADP 2.0, 6 m mole/liter NaF", "value": 24, "unit": "U/l"}, {"measurement": "Measured Residual Adenylate Kinase (-NaF)", "setting": "ADP 1.43 mM, AMP 2.9 mM, AMP/ADP 2.0, no NaF", "value": 103, "unit": "U/l"}, {"measurement": "Measured Residual Adenylate Kinase (+NaF)", "setting": "ADP 1.43 mM, AMP 5.8 mM, AMP/ADP 4.1, 6 m mole/liter NaF", "value": 13, "unit": "U/l"}, {"measurement": "Measured Residual Adenylate Kinase (-NaF)", "setting": "ADP 1.43 mM, AMP 5.8 mM, AMP/ADP 4.1, no NaF", "value": 61, "unit": "U/l"}, {"measurement": "Measured Residual Adenylate Kinase (+NaF)", "setting": "ADP 1.43 mM, AMP 7.3 mM, AMP/ADP 5.1, 6 m mole/liter NaF", "value": 10, "unit": "U/l"}, {"measurement": "Measured Residual Adenylate Kinase (-NaF)", "setting": "ADP 1.43 mM, AMP 7.3 mM, AMP/ADP 5.1, no NaF", "value": 56, "unit": "U/l"}, {"measurement": "Measured Residual Adenylate Kinase (+NaF)", "setting": "ADP 1.43 mM, AMP 10.2 mM, AMP/ADP 7.1, 6 m mole/liter NaF", "value": 7.7, "unit": "U/l"}, {"measurement": "Measured Residual Adenylate Kinase (-NaF)", "setting": "ADP 1.43 mM, AMP 10.2 mM, AMP/ADP 7.1, no NaF", "value": 35, "unit": "U/l"}, {"measurement": "Measured Residual Adenylate Kinase (+NaF)", "setting": "ADP 1.43 mM, AMP 14.6 mM, AMP/ADP 10.2, 6 m mole/liter NaF", "value": 5.3, "unit": "U/l"}, {"measurement": "Measured Residual Adenylate Kinase (-NaF)", "setting": "ADP 1.43 mM, AMP 14.6 mM, AMP/ADP 10.2, no NaF", "value": 333, "unit": "U/l"}, {"measurement": "Measured Residual Adenylate Kinase (+NaF)", "setting": "ADP 1.43 mM, AMP 21.9 mM, AMP/ADP 15.3, 6 m mole/liter NaF", "value": 4.6, "unit": "U/l"}, {"measurement": "Measured Residual Adenylate Kinase (-NaF)", "setting": "ADP 1.43 mM, AMP 21.9 mM, AMP/ADP 15.3, no NaF", "value": 19, "unit": "U/l"}, {"measurement": "Measured Residual Adenylate Kinase (+NaF)", "setting": "ADP 1.43 mM, AMP 29.2 mM, AMP/ADP 20.4, 6 m mole/liter NaF", "value": 1.7, "unit": "U/l"}, {"measurement": "Measured Residual Adenylate Kinase (-NaF)", "setting": "ADP 1.43 mM, AMP 29.2 mM, AMP/ADP 20.4, no NaF", "value": 17, "unit": "U/l"}, {"measurement": "Measured Residual Adenylate Kinase (+NaF)", "setting": "ADP 2.86 mM, AMP 2.9 mM, AMP/ADP 1.0, 6 m mole/liter NaF", "value": 51, "unit": "U/l"}, {"measurement": "Measured Residual Adenylate Kinase (-NaF)", "setting": "ADP 2.86 mM, AMP 2.9 mM, AMP/ADP 1.0, no NaF", "value": 166, "unit": "U/l"}, {"measurement": "Measured Residual Adenylate Kinase (+NaF)", "setting": "ADP 2.86 mM, AMP 5.8 mM, AMP/ADP 2.0, 6 m mole/liter NaF", "value": 26, "unit": "U/l"}, {"measurement": "Measured Residual Adenylate Kinase (-NaF)", "setting": "ADP 2.86 mM, AMP 5.8 mM, AMP/ADP 2.0, no NaF", "value": 126, "unit": "U/l"}, {"measurement": "Measured Residual Adenylate Kinase (+NaF)", "setting": "ADP 2.86 mM, AMP 7.3 mM, AMP/ADP 2.6, 6 m mole/liter NaF", "value": 22, "unit": "U/l"}, {"measurement": "Measured Residual Adenylate Kinase (-NaF)", "setting": "ADP 2.86 mM, AMP 7.3 mM, AMP/ADP 2.6, no NaF", "value": 93, "unit": "U/l"}, {"measurement": "Measured Residual Adenylate Kinase (+NaF)", "setting": "ADP 2.86 mM, AMP 10.2 mM, AMP/ADP 3.6, 6 m mole/liter NaF", "value": 17, "unit": "U/l"}, {"measurement": "Measured Residual Adenylate Kinase (-NaF)", "setting": "ADP 2.86 mM, AMP 10.2 mM, AMP/ADP 3.6, no NaF", "value": 84, "unit": "U/l"}, {"measurement": "Measured Residual Adenylate Kinase (+NaF)", "setting": "ADP 2.86 mM, AMP 14.6 mM, AMP/ADP 5.1, 6 m mole/liter NaF", "value": 13, "unit": "U/l"}, {"measurement": "Measured Residual Adenylate Kinase (-NaF)", "setting": "ADP 2.86 mM, AMP 14.6 mM, AMP/ADP 5.1, no NaF", "value": 64, "unit": "U/l"}, {"measurement": "Measured Residual Adenylate Kinase (+NaF)", "setting": "ADP 2.86 mM, AMP 21.9 mM, AMP/ADP 7.7, 6 m mole/liter NaF", "value": 10, "unit": "U/l"}, {"measurement": "Measured Residual Adenylate Kinase (-NaF)", "setting": "ADP 2.86 mM, AMP 21.9 mM, AMP/ADP 7.7, no NaF", "value": 32, "unit": "U/l"}, {"measurement": "Measured Residual Adenylate Kinase (+NaF)", "setting": "ADP 2.86 mM, AMP 29.2 mM, AMP/ADP 10.2, 6 m mole/liter NaF", "value": 5.3, "unit": "U/l"}, {"measurement": "Measured Residual Adenylate Kinase (-NaF)", "setting": "ADP 2.86 mM, AMP 29.2 mM, AMP/ADP 10.2, no NaF", "value": 28, "unit": "U/l"}, {"measurement": "Measured Residual Adenylate Kinase (+NaF)", "setting": "ADP 5.72 mM, AMP 2.9 mM, AMP/ADP 0.51, 6 m mole/liter NaF", "value": 108, "unit": "U/l"}, {"measurement": "Measured Residual Adenylate Kinase (-NaF)", "setting": "ADP 5.72 mM, AMP 2.9 mM, AMP/ADP 0.51, no NaF", "value": 203, "unit": "U/l"}, {"measurement": "Measured Residual Adenylate Kinase (+NaF)", "setting": "ADP 5.72 mM, AMP 5.8 mM, AMP/ADP 1.0, 6 m mole/liter NaF", "value": 55, "unit": "U/l"}, {"measurement": "Measured Residual Adenylate Kinase (-NaF)", "setting": "ADP 5.72 mM, AMP 5.8 mM, AMP/ADP 1.0, no NaF", "value": 186, "unit": "U/l"}, {"measurement": "Measured Residual Adenylate Kinase (+NaF)", "setting": "ADP 5.72 mM, AMP 7.3 mM, AMP/ADP 1.3, 6 m mole/liter NaF", "value": 54, "unit": "U/l"}, {"measurement": "Measured Residual Adenylate Kinase (-NaF)", "setting": "ADP 5.72 mM, AMP 7.3 mM, AMP/ADP 1.3, no NaF", "value": 126, "unit": "U/l"}, {"measurement": "Measured Residual Adenylate Kinase (+NaF)", "setting": "ADP 5.72 mM, AMP 10.2 mM, AMP/ADP 1.8, 6 m mole/liter NaF", "value": 37, "unit": "U/l"}, {"measurement": "Measured Residual Adenylate Kinase (-NaF)", "setting": "ADP 5.72 mM, AMP 10.2 mM, AMP/ADP 1.8, no NaF", "value": 114, "unit": "U/l"}, {"measurement": "Measured Residual Adenylate Kinase (+NaF)", "setting": "ADP 5.72 mM, AMP 14.6 mM, AMP/ADP 2.6, 6 m mole/liter NaF", "value": 31, "unit": "U/l"}, {"measurement": "Measured Residual Adenylate Kinase (-NaF)", "setting": "ADP 5.72 mM, AMP 14.6 mM, AMP/ADP 2.6, no NaF", "value": 108, "unit": "U/l"}, {"measurement": "Measured Residual Adenylate Kinase (+NaF)", "setting": "ADP 5.72 mM, AMP 21.9 mM, AMP/ADP 3.8, 6 m mole/liter NaF", "value": 21, "unit": "U/l"}, {"measurement": "Measured Residual Adenylate Kinase (-NaF)", "setting": "ADP 5.72 mM, AMP 21.9 mM, AMP/ADP 3.8, no NaF", "value": 66, "unit": "U/l"}, {"measurement": "Measured Residual Adenylate Kinase (+NaF)", "setting": "ADP 5.72 mM, AMP 29.2 mM, AMP/ADP 5.1, 6 m mole/liter NaF", "value": 13, "unit": "U/l"}, {"measurement": "Measured Residual Adenylate Kinase (-NaF)", "setting": "ADP 5.72 mM, AMP 29.2 mM, AMP/ADP 5.1, no NaF", "value": 62, "unit": "U/l"}]}
{"molecule": "sodium fluoride [NaF]", "values": [{"measurement": "Measured Residual Adenylate Kinase (+NaF)", "setting": "ADP 1.43 mM, AMP 0 mM, 6 m mole/liter NaF", "value": 327, "unit": "U/l"}, {"measurement": "Measured Residual Adenylate Kinase (+NaF)", "setting": "ADP 2.86 mM, AMP 0 mM, 6 m mole/liter NaF", "value": 398, "unit": "U/l"}, {"measurement": "Measured Residual Adenylate Kinase (+NaF)", "setting": "ADP 5.72 mM, AMP 0 mM, 6 m mole/liter NaF", "value": 460, "unit": "U/l"}]}
